Measurements: paper PMC11515387, “VvD14c-VvMAX2-VvLOB/VvLBD19 module is involved in the strigolactone-mediated regulation of grapevine root architecture” (Molecular Horticulture, 2024)

Biological target: T1, VvD14c (Vitis vinifera, UniProt A0ACM8QNI4)
T1 construct: gene VIT_18s0001g09140; pET-28b, His-tag, E. coli Rosetta (DE3); VvD14c encodes 267 amino acids
Assay: surface plasmon resonance (Biacore 8K, CM5 chip, LMW multi-cycle kinetics/affinity)
Assay type: binding

T1 sequence (A0ACM8QNI4 entry or part of it): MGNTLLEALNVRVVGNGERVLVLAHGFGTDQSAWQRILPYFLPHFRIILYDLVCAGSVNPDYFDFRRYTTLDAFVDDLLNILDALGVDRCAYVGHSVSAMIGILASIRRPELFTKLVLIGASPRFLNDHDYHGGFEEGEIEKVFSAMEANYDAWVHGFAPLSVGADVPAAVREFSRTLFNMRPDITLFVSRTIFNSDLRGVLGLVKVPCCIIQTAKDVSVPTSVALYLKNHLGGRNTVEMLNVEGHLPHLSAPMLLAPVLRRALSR

- Kd: 5.65 nM
SMILES: CC1=C[C@@H](O/C=C2/C(=O)O[C@@H]3c4ccccc4C[C@H]23)OC1=O [GR24]
